How the values were obtained:
[1] = system: mixture of spores of Fusarium roseum, Penicillium roquefonti and Aspergilus niger; test: Antifungal activity, adhesive test (3% carboxymethyl starch); format: cell-based; settings: for Growth of Fungus after 48 hours / Growth of Fungus after 8 days: scale of 3 to 0, untreated control 3
Experimental: The antifungal activity of (1R,cis) 2,2-dimethyl-3-[Z-2-(methoxycarbonyl)-ethenyl]-cyclopropane-carboxylic acid was determined in an adhesive test using an aqueous 3% carboxymethyl starch solution. The test compound was dissolved in 1 ml of acetone and 5 ml of an innoculum consisting of a mixture of spores of Fusarium roseum, Penicillium roquefonti and Aspergilus niger were added thereto. The development of fungus after 48 hours and 8 days was compared to an untreated control on a scale of 3 to 0.

[2] = system: mixture of spores of Geotrichum, Trichosporon and Cephalosporium; test: Anti-fungal test on oils (3% synthetic fluid); format: cell-based; settings: for Anti-fungal growth after 48 hours: control 49 × 10^3 Geo. + 80 × 10^3 Tri. + 11 × 10^3 Cep.
Experimental: A solution of 3% of synthetic fluid was used to test the anti-fungal activity of (1R,cis) 2,2-dimethyl-3-[Z-2-(methoxycarbonyl)-ethenyl]-cyclopropane-carboxylic acid and contamination was effected with 5 ml of an innoculum consisting of a mixture of spores of Geotrichum, Trichosporon and Cephalosporium.

[3] = system: mixture of spores of Aerobacter aerogenes, Pseudomonas aeruginosa, Escherichia coli, Serratia mancescens and Bacillus subtilis; test: Bactericidal activity (3% carboxymethyl starch in water); format: cell-based; settings: for bacterial population after 48 hours: control 12 × 10^7; for bacterial population after 8 days: control 16 × 10^7
Experimental: The bactericidal activity of (1R,cis) 2,2-dimethyl-3-[Z-2-(methoxycarbonyl)-ethenyl]-cyclopropane-carboxylic acid was determined with a solution of 3% of carboxymethyl starch in water. The test compound was placed in 1 ml of water and 5 ml of an innoculum of a mixture of spores of Aerobacter aerogenes, Pseudomonas aeruginosa, Escherichia coli, Serratia mancescens and Bacillus subtilis were added thereto. The mixture was placed in an oven for 48 hours at 37° C. and then for 6 days at 20° C. The bacterial population ([…]) was determined 48 hours and 8 days by the serum dihibition method and incorporation into broth containing agar.

[4] = system: Fusarium, Penicillium, Aspergilus, Geotrichum, Trichosporon and Cephalosporium; test: Antifungal activity of the acids (general statement); format: cell-based
[5] = system: Epilachna varivestris Larvae; test: Activity against Epilachna varivestris larvae, topical application; format: in vivo; settings: for LD50: topical, second last stage larvae, 72 hours
Experimental: The test was carried out by topical application of the test compounds as in test B and the larvae of Epilachna variestris were in second last stage. The treated larvae were then placed on bean plants and the number of dead was determined after 72 hours to calculate the LD50 in ng.

[6] = system: Spodoptera littoralis larvae; test: Activity against Spodoptera littoralis larvae, topical application; format: in vivo; settings: dorsal thorax, fourth stage larvae, 48 hours
Experimental: The test was carried out on larvae of Spodoptera littoralis by applying an acetone solution of the test compound with an Arnold micro-manipulator to the dorsal thorax of the larvae. 10 to 15 larvae were used for each tested dose and the larvae were in the fourth stage (about 10 days old at 24° C. and 65% relative humidity). The larvae were then placed in an artifical medium (Poitout medium) and the number of dead were determined after 48 hours to calculate the LD50 in ng.

[7] = system: insects; test: Insecticidal activity (general statement); settings: in vivo
[8] = system: houseflies; test: Insecticidal activity on houseflies, topical application; format: in vivo; settings: 1 μl acetone solution, dorsal thorax, 4 day old females, 24 hours
Experimental: The test was effected on 4 day old female houseflies which received a topical application of 1 μl of an acetone solution of the test compound on the dorsal thorax with an Arnold micro-manipulator. 50 insects were used for each test and the number of dead insects were determined after 24 hours to calculate the LD50 dose in nanograms (the dose killing 50% of the insects).

[9] = system: houseflies; test: Knock-down activity on houseflies, direct spray in Kearns and March chamber; format: in vivo; settings: for KT50: 0.25 g/l solution, 2 ml, direct spray, 4 day old females
Experimental: 50 4 day old female houseflies per dose were directly sprayed in a Kearns and March chamber with a solution of the 0.25 g/l of the test compound in 2 ml of a mixture of 5% of acetone and Isopar L (petroleum solvent) in one second.

[10] = system: Boophilus microplus larvae (Mexico sensitive); test: Activity against Boophilus microplus larvae, Mexico sensitive strain; format: in vivo
Experimental: (§1) A 10% emulsifiable concentrate was prepared by dissolving the test compound of Example 6 in a mixture of dimethylformamide, emulsifiers and Arcopal and the concentrate was diluted with water to obtain solutions of 10,5 and 1 ppm of active compound. The different solutions were sprayed by a spraying tower on to larvae of tropical cattle ticks of the Boophilus microplus type (Mexico sensitive and DDT resistant strains) and the number of dead and live larvae was determined after 24 hours.

[11] = system: Amblyomma hebraeum; test: Activity against Amblyomma hebraeum ticks; format: in vivo
Experimental: as §1
(§2) The test procedure of F was repeated with the compound of Example 6 at doses of 100, 10 and 1 ppm using 10 ticks of Rhipicephalus appendiculatus or Amblyomma hebraeum per test as above.

[12] = system: Boophilus microplus larvae (DDT resistant); test: Activity against Boophilus microplus larvae, DDT resistant strain; format: in vivo
Experimental: as §1

[13] = system: Boophilus microplus ticks (Mexico sensitive strain); test: Inhibition of reproduction of Boophilus microplus ticks; format: in vivo
Experimental: Female Boophilus microplus ticks of the Mexico sensitive strain ready to lay eggs were immersed for 5 minutes in solutions of 100, 50, 25, 12.50 and 6.25 ppm of the compound of Example 6 and then they were placed in a heated enclosure to lay their eggs.

[14] = system: Rhipicephalus appendiculatus; test: Activity against Rhipicephalus appendiculatus ticks; format: in vivo
Experimental: as §1, §2

[15] = Mexico sensitive and DDT resistant strains together
[16] = Rhipicephalus microplus, in Bos taurus, 1 ppm, 24 hours
[17] = Rhipicephalus microplus, in Bos taurus, 5 ppm, 24 hours
[18] = Rhipicephalus microplus, in Bos taurus, 10 ppm, 24 hours

Compound: COC(=O)/C=C\[C@H]1[C@@H](C(=O)O)C1(C)C (relative stereo) [(1R,cis) 2,2-dimethyl-3-[(Z)-2-(methoxycarbonyl)-ethenyl]-cyclopropane-carboxylic acid]
- anti-fungal activity (in words) [1]: good anti-fungal activity
- Growth of Fungus after 48 hours ([1]; 0.01 % concentration): 3
- Growth of Fungus after 8 days ([1]; 0.01 % concentration): 3
- Growth of Fungus after 48 hours ([1]; 0.05 % concentration): 0
- Growth of Fungus after 8 days ([1]; 0.05 % concentration): 0
- antifungal activity on oils (in words) [2]: good antifungal activity
- Anti-fungal growth after 48 hours ([2]; 0.5 % concentration): 0
- Anti-fungal growth after 48 hours ([2]; 1 % concentration): 0
- bactericidal activity (in words) [3]: good bactericidal activity
- bacterial population after 48 hours ([3]; 0.025%): 10 × 10^4 colorless ml
- bacterial population after 8 days ([3]; 0.025%): 16 × 10^6 colorless ml
- bacterial population after 48 hours ([3]; 0.05%): 52 × 10^2 colorless ml
- bacterial population after 8 days ([3]; 0.05%): 68 × 10^4 colorless ml
- fungicidal properties / antifungal activity (in words) [4]: interesting fungicidal properties

Compound: COC(=O)/C=C\[C@H]1[C@@H](C(=O)O[C@H](C#N)c2cccc(Oc3ccccc3)c2)C1(C)C [Example 1, (S)α-cyano-3-phenoxy-benzyl (1R,cis) 2,2-dimethyl-3-[Z-2-methoxycarbonyl-ethenyl]-cyclopropane-carboxylate]
- LD50 [5]: 8.290 ng
- LD50 [6]: 3.602 ng
- insecticidal activity (in words) [7]: particularly remarkable insecticidal activity
- LD50 [8]: 7.128 ng
- KT50 [9]: 1.226 min
- knock-down activity (in words) ([9]; in vivo): remarkable knock-down activity

Compound: CC(C)(C)OC(=O)/C=C\[C@H]1[C@@H](C(=O)O[C@H](C#N)c2cccc(Oc3ccccc3)c2)C1(C)C [Example 6, (S)α-cyano-3-phenoxy-benzyl (1R,cis) 2,2-dimethyl-3-[Z-2-(tert.-butoxycarbonyl)-ethenyl]-cyclopropane-carboxylate]
- insecticidal activity against Epilachna larvae (in words) ([5]; in vivo): good insecticidal activity
- LD50 [5]: 0.446 ng
- activity against Boophilus microplus larvae, Mexico sensitive (in words) [10, 15]: remarkable activity
- mortality at 1 ppm [10, 16]: 100%
- mortality at 5 ppm [10, 17]: 100%
- mortality at 10 ppm [10, 18]: 100%
- mortality at 1 ppm ([11]; Amblyomma hebraeum, 1 ppm): 70%
- mortality at 10 ppm ([11]; Amblyomma hebraeum, 10 ppm): 100%
- mortality at 100 ppm ([11]; Amblyomma hebraeum, 100 ppm): 100%
- tickicide activity against Amblyomma hebraeum (in words) ([11]; in vivo): excellent tickicide activity
- activity against Boophilus microplus larvae, DDT resistant (in words) [12, 15]: remarkable activity
- mortality at 1 ppm [12, 16]: 100%
- mortality at 5 ppm [12, 17]: 100%
- mortality at 10 ppm [12, 18]: 100%
- inhibition at 6.25 ppm ([13]; Rhipicephalus microplus, 5 min, 6.25 ppm, 5 minutes immersion): 100%
- inhibition at 12.5 ppm ([13]; Rhipicephalus microplus, 5 min, 12.50 ppm, 5 minutes immersion): 100%
- inhibition at 25 ppm ([13]; Rhipicephalus microplus, 5 min, 25 ppm, 5 minutes immersion): 100%
- inhibition at 50 ppm ([13]; Rhipicephalus microplus, 5 min, 50 ppm, 5 minutes immersion): 100%
- inhibition at 100 ppm ([13]; Rhipicephalus microplus, 5 min, 100 ppm, 5 minutes immersion): 100%
- tickicide activity, reproduction test (in words) ([13]; in vivo): remarkable tickicide activity
- mortality at 1 ppm ([14]; Rhipicephalus appendiculatus, 1 ppm): 100%
- mortality at 10 ppm ([14]; Rhipicephalus appendiculatus, 10 ppm): 100%
- mortality at 100 ppm ([14]; Rhipicephalus appendiculatus, 100 ppm): 100%
- tickicide activity against Rhipicephalus appendiculatus (in words) ([14]; in vivo): excellent tickicide activity

Compound: CCOC(=O)/C=C\[C@H]1[C@@H](C(=O)O[C@H](C#N)c2cccc(Oc3ccccc3)c2)C1(C)C [Example 3, (S)α-cyano-3-phenoxy-benzyl (1R,cis) 2,2-dimethyl-3-[Z-2-(ethoxycarbonyl)-ethenyl]-cyclopropane-carboxylate]
- LD50 [5]: 8.850 ng
- LD50 [6]: 3.260 ng
- LD50 [8]: 3.494 ng
- KT50 [9]: 3.340 min

Compound: CC(C)OC(=O)/C=C\[C@H]1[C@@H](C(=O)O[C@H](C#N)c2cccc(Oc3ccccc3)c2)C1(C)C [Example 5, (S)α-cyano-3-phenoxy-benzyl (1R,cis) 2,2-dimethyl-3-[Z-2-(isopropoxycarbonyl)-ethenyl]-cyclopropane-carboxylate]
- LD50 [5]: 3.705 ng
- LD50 [6]: 7.920 ng
- LD50 [8]: 2.781 ng
- KT50 [9]: 4.390 min

Source: patent publication US4402972A, “Cyclopropane carboxylic acid derivatives” (Roussel Uclaf, priority 1980, dated 1983)
